The values that follow come from patent US11913952B2, “Methods for detecting peptide/MHC/TCR binding” (Prognosys Biosciences, Inc., priority 2013, dated 2024).

Read-outs that look alike come from different tables or passages of the source.

One experiment has as its target HLA-DR2 (Homo sapiens, UniProt P01903+P01911). As to conditions: cited from earlier work.
For a further experiment, the target named is HLA-DRB1*01:01 (Homo sapiens, UniProt P01903+P01911, A100R/D57E/F55L/F60I/F76Y/I96L/L162R/M171V/P40L/Q125E/R42F/V115G/Y59C). Kind of experiment: Peptide-MHC binding assay: conjugate incubated with recombinant MHC, captured with anti-HLA-DR antibody (L243) beads, qPCR. A general note: Real-time PCR tracks product formation cycle by cycle.
Experiment [1] relates to HLA-DR3.
Experiment [2] has as its target T1, HLA-DR1 (Homo sapiens, UniProt P01903+P01911, A100R/D57E/F55L/F60I/F76Y/I96L/L162R/M171V/P40L/Q125E/R42F/V115G/Y59C). As to conditions: cited from earlier work; for known binding of peptide to HLA-DR1: Sidney et al., 2002.
Experiment [3] has as its system HLA-DR3. As to conditions: cited from earlier work; for known binding of peptide to HLA-DR3: Sidney et al., 2002.
Experiment [4] has as its target T1, HLA-DR1. Format: binding. The arrangement: biotin (biotinylated).

For “MBP(85-99): peptide of human myelin basic protein, residues 85-99 (PGSRPHLIRLFSRDA; UniProt P02686 85-99, looked up, fragment)”, the “affinity of peptide for purified DR2” value with HLA-DR2 is “high affinity”.
Regarding “MBP(148-162): peptide of human myelin basic protein, residues 148-162 (YLATASTMDHARHGF; UniProt P02686 148-162, looked up, fragment)”, the “affinity of peptide for purified DR2” value with HLA-DR2 is given as “lower but significant”.
YPKYVKQNTLKLAT: on HLA-DRB1*01:01, the “enrichment in the DR1 condition compared to beads only” value is ~1000 fold and the “enrichment of conjugate binding to DR1 over beads” value is reported as ~100 fold. For the same substance, the “binding of peptide-cDNA conjugate to MHC molecule” value (from here on “binding of peptide-cDNA conjugate”) with HLA-DR3 [1] is recorded as “not to the other HLA-DR family member”. Further, at HLA-DR1 [2], the “known binding of peptide to HLA-DR1” value was “bind”, the “known affinity of peptide for the HLA-DR1 molecule” value is “high” and the “known binding of peptide to HLA-DRB1*01:01” value was “bind”. Moreover, in the experiment with HLA-DR3 [3], the “known binding of peptide to HLA-DR3” value is recorded as “without cross-binding”. Further, on HLA-DR1 [4], the “binding of peptide-cDNA conjugate” value is “bound to the expected MHC molecule” and the “profile of binding to HLA-DR1” value is “high”.
Regarding YKTIAFDEEARR, at HLA-DRB1*01:01, the “enrichment in the DR1 condition compared to beads only” value was “no such enrichment”. For the same substance, in the experiment with HLA-DR3 [1], the “binding of peptide-cDNA conjugate” value was “bound to the expected MHC molecule”. The “enrichment of signal in the DR1 condition compared to beads only” value in the experiment on DR1 is reported as ~1000 fold. At HLA-DR1 [2], the “known binding of peptide to HLA-DR1” value is on record as “without cross-binding” and the “known binding of peptide to HLA-DRB1*01:01” value was “not bind”. In the experiment with HLA-DR3 [3], the “known binding of peptide to HLA-DR3” value is given as “bind” and the “known binding of peptide to HLA-DRB1*03:01” value is reported as “bind”. Further, the “binding of peptide-cDNA conjugate” value at HLA-DR1 [4] (biotinylated HLA-DR1, overnight incubation, gel electrophoresis and qPCR readouts) was “not to the other HLA-DR family member”.
YPKAVKQNTLKLAT [YP (Y4A)]: the “known affinity of peptide for the HLA-DR1 molecule” value at HLA-DR1 [2] was “low”. Besides, the “profile of binding to HLA-DR1” value on HLA-DR1 [4] (conjugates incubated and detected as a mixture (3-plex), qPCR) is on record as “low”; on HLA-DR1 [4] (conjugates present individually (1-plex), qPCR), “low”.
